Experiments:
[1] = Plasma half-life of compound was determined in rat; type: ADME, cell-free
[2] = target: Dipeptidyl peptidase 2 (Homo sapiens, UniProt Q9UHL4)
[3] = target: Dipeptidyl peptidase 9 (Homo sapiens, UniProt Q86TI2)
[4] = target: Dipeptidyl peptidase 4 (Homo sapiens, UniProt P27487)
[5] = target: Dipeptidyl peptidase 8 (Homo sapiens, UniProt Q6V1X1)
[6] = Plasma cearance of compound was determined in rat; type: ADME, organism-based; settings: read-out: Clp
[7] = Oral bioavailability in rat; type: ADME, organism-based; settings: in vivo

Sequence of Dipeptidyl peptidase 8 (Q6V1X1 whole entry): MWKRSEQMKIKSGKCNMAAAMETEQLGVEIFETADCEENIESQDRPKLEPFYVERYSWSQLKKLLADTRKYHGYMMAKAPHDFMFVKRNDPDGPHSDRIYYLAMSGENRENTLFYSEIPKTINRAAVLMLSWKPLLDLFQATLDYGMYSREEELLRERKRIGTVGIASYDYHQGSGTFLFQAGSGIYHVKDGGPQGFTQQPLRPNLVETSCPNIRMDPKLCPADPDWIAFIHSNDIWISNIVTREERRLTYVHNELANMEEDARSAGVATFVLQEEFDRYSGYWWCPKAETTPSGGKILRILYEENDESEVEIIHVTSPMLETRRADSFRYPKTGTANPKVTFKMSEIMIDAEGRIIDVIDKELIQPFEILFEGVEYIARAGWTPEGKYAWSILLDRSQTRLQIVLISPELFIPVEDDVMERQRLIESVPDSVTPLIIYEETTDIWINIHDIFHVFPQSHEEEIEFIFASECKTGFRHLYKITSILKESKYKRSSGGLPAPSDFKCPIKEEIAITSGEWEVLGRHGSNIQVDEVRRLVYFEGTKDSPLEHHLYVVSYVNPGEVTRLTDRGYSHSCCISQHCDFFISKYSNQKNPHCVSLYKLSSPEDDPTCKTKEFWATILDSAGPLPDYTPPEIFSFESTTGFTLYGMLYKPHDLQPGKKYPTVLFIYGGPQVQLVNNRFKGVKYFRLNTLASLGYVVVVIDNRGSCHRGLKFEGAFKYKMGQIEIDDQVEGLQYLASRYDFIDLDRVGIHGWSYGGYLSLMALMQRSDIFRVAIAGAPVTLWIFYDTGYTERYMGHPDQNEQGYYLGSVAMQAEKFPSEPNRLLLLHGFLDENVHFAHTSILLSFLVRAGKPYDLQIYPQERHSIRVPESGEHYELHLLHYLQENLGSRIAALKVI
Sequence of Dipeptidyl peptidase 4 (P27487 whole entry): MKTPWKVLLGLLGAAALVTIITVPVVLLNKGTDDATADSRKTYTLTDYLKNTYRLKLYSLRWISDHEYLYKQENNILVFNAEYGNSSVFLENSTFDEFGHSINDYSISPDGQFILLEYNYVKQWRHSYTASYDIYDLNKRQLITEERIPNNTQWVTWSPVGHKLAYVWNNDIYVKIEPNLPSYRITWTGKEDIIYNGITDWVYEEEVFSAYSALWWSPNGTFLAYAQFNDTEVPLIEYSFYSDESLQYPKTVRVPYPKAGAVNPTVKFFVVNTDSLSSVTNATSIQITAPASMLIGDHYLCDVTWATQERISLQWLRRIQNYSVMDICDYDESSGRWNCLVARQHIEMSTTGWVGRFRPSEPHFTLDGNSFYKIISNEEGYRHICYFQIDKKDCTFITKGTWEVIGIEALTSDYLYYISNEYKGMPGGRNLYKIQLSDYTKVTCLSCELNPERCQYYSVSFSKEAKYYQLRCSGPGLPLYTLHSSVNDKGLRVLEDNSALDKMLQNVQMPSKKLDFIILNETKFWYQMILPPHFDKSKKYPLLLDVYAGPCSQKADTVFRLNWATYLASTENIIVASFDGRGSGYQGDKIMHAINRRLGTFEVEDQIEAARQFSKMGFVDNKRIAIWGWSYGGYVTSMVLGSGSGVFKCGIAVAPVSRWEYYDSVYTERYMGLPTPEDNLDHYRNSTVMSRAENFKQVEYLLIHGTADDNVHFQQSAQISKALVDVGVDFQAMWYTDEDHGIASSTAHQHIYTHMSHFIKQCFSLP
Sequence of Dipeptidyl peptidase 9 (Q86TI2 whole entry): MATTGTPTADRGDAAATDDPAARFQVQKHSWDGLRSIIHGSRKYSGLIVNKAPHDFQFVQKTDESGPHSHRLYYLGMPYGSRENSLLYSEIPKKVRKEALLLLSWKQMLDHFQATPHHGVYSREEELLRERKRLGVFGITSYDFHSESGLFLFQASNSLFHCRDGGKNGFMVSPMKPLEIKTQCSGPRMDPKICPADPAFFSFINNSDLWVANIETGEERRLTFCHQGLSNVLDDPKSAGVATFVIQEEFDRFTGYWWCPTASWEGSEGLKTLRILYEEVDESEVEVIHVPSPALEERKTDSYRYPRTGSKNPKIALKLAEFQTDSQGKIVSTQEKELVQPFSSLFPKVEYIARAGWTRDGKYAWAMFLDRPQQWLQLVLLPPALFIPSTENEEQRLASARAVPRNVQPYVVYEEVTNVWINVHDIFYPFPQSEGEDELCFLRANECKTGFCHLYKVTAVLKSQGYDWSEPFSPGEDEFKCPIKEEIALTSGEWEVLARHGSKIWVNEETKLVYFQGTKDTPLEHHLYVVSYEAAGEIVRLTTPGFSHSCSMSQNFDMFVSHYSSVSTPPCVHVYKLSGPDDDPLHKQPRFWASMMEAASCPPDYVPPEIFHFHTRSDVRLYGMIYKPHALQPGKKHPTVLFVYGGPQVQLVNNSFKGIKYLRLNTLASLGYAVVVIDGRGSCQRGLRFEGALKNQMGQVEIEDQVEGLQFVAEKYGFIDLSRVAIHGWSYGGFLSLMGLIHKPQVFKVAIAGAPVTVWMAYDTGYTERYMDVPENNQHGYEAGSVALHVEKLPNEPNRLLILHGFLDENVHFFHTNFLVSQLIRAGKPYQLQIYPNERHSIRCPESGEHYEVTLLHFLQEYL

Row | Compound | half-life [1] | IC50 [2] | IC50 [3] | IC50 [4] | IC50 [5] | clearance [6] | bioavailability [7]
1 | C[C@@H](c1ccc(Cl)cc1)[C@H](N)C(=O)N1CC[C@H](F)C1 | – | 5.9 µM | > 100 µM | 0.17 µM | > 100 µM | – | –
2 | C[C@@H](c1ccc(-c2cccc(-c3nc[nH]n3)c2)cc1)[C@H](N)C(=O)N1CC[C@H](F)C1 | – | 0.35 µM | > 100 µM | 0.098 µM | > 100 µM | – | –
3 | C[C@@H](c1ccc(Br)cc1)[C@H](N)C(=O)N1CC[C@H](F)C1 | – | 3.6 µM | > 100 µM | 0.25 µM | > 100 µM | – | –
4 | C[C@@H](c1ccc(F)cc1C(F)(F)F)[C@H](N)C(=O)N1CC[C@H](F)C1 | – | > 100 µM | > 100 µM | 54 µM | > 100 µM | – | –
5 | C[C@@H](c1ccc(-c2cc(F)cc(F)c2)cc1)[C@H](N)C(=O)N1CC[C@H](F)C1 | – | 2 µM | – | 0.24 µM | – | – | –
6 | C[C@@H](c1cccc(F)c1)[C@H](N)C(=O)N1CC[C@H](F)C1 | – | 14 µM | > 100 µM | 3.7 µM | > 100 µM | – | –
7 | CSc1ccc([C@H](C)[C@H](N)C(=O)N2CC[C@H](F)C2)cc1 | – | 5.9 µM | – | 0.36 µM | – | – | –
8 | C[C@@H](c1ccc(-c2nccs2)cc1)[C@H](N)C(=O)N1CC[C@H](F)C1 | – | 0.72 µM | > 100 µM | 1.5 µM | > 100 µM | – | –
9 | C[C@@H](c1cccc(Cl)c1)[C@H](N)C(=O)N1CC[C@H](F)C1 | – | 5.7 µM | > 100 µM | 1.1 µM | > 100 µM | – | –
10 | C[C@@H](c1ccccc1)[C@H](N)C(=O)N1CCSC1 | – | – | > 100 µM | 0.968 µM | > 100 µM | – | –
11 | C[C@@H](c1ccc(C(F)(F)F)cc1)[C@H](N)C(=O)N1CC[C@H](F)C1 | – | 5.2 µM | > 100 µM | 0.6 µM | > 100 µM | – | –
12 | C[C@@H](c1cc(F)cc(F)c1)[C@H](N)C(=O)N1CC[C@H](F)C1 | – | 7.8 µM | > 100 µM | 3.7 µM | > 100 µM | – | –
13 | C[C@@H](c1ccc(-c2cccc(-c3nn[nH]n3)c2)cc1)[C@H](N)C(=O)N1CC[C@H](F)C1.O=C(O)C(F)(F)F | 0.3 h | 2.9 µM | – | 0.006 µM | > 100 µM | 132 mL/min/kg | 3.5%
14 | C[C@@H](c1ccc(-c2cccc(-c3nnco3)c2)cc1)[C@H](N)C(=O)N1CC[C@H](F)C1 | – | 0.96 µM | > 100 µM | 0.069 µM | > 100 µM | – | –
15 | C[C@@H](c1ccc(-c2cccc(-n3cnnn3)c2)cc1)[C@H](N)C(=O)N1CC[C@H](F)C1 | – | 0.87 µM | > 100 µM | 0.14 µM | – | – | –
16 | C[C@@H](c1ccc(F)cc1Cl)[C@H](N)C(=O)N1CC[C@H](F)C1 | – | 46 µM | > 100 µM | 4.2 µM | > 100 µM | – | –

Row | Compound | half-life [1] | IC50 [2] | IC50 [3] | IC50 [4] | IC50 [5] | clearance [6] | bioavailability [7]
17 | C[C@@H](c1ccc(-c2cccc(-c3n[nH]c(O)n3)c2)cc1)[C@H](N)C(=O)N1CC[C@H](F)C1 | – | 1.1 µM | – | 0.095 µM | – | – | –
18 | C[C@@H](c1ccc(-c2cc(F)ccc2F)cc1)[C@H](N)C(=O)N1CC[C@H](F)C1 | – | 1.3 µM | > 100 µM | – | > 100 µM | – | –
19 | C[C@@H](c1ccc(N2CCCCC2)cc1)[C@H](N)C(=O)N1CC[C@H](F)C1 | – | 28 µM | > 100 µM | 7.9 µM | > 100 µM | – | –
20 | C[C@@H](c1ccccc1)[C@H](N)C(=O)N1CC[C@H](F)C1 | – | 59 µM | > 100 µM | 1.4 µM | > 100 µM | – | –
21 | C[C@@H](c1ccccc1F)[C@H](N)C(=O)N1CC[C@H](F)C1 | – | 19 µM | > 100 µM | 1.1 µM | > 100 µM | – | –
22 | C[C@@H](c1ccc(-c2cccc(-c3c[nH]c(O)n3)c2)cc1)[C@H](N)C(=O)N1CC[C@H](F)C1 | – | 0.83 µM | – | 0.11 µM | – | – | –
23 | C[C@@H](c1ccc(F)c(Cl)c1)[C@H](N)C(=O)N1CC[C@H](F)C1 | – | 5.2 µM | – | 2.8 µM | – | – | –
24 | C[C@@H](c1ccc(F)cc1)[C@H](N)C(=O)N1CC[C@H](F)C1 | – | 23 µM | – | – | > 100 µM | – | –
25 | C[C@@H](c1ccc(-c2ccccc2)c(F)c1)[C@H](N)C(=O)N1CC[C@H](F)C1 | – | 48 µM | > 100 µM | 2 µM | > 100 µM | – | –
26 | C[C@@H](c1ccc(F)c(F)c1)[C@H](N)C(=O)N1CC[C@H](F)C1 | – | 11 µM | – | 1.1 µM | > 100 µM | – | –
27 | COc1ccc([C@H](C)[C@H](N)C(=O)N2CC[C@H](F)C2)cc1 | – | 14 µM | > 100 µM | 0.77 µM | > 100 µM | – | –
28 | C[C@@H](c1ccc(-c2cccc(-c3noc(C4CC4)n3)c2)cc1)[C@H](N)C(=O)N1CC[C@H](F)C1 | – | 0.096 µM | > 100 µM | 0.14 µM | – | – | –
29 | C[C@@H](c1ccc(Cl)cc1F)[C@H](N)C(=O)N1CC[C@H](F)C1 | – | 5.6 µM | > 100 µM | 0.48 µM | > 100 µM | – | –
30 | C[C@@H](c1ccc(-c2ccccc2C(F)(F)F)cc1)[C@H](N)C(=O)N1CC[C@H](F)C1 | – | 2.5 µM | > 100 µM | 0.13 µM | > 100 µM | – | –
31 | C[C@@H](c1ccc(C(=O)[n+]2ccc[nH]2)cc1)[C@H](N)C(=O)N1CC[C@H](F)C1 | – | 1.5 µM | > 100 µM | 1.7 µM | – | – | –

Second part, the compound after the results:

Row | half-life [1] | IC50 [2] | IC50 [3] | IC50 [4] | IC50 [5] | clearance [6] | bioavailability [7] | Compound
32 | 2.2 h | – | – | – | – | – | – | C[C@@H](c1ccc(-c2ccc(F)cc2)cc1)[C@H](N)C(=O)N1CC[C@H](F)C1.O=C(O)C(F)(F)F
33 | – | 1.1 µM | > 100 µM | 0.39 µM | – | – | – | Cc1ccc(-c2ccc([C@H](C)[C@H](N)C(=O)N3CC[C@H](F)C3)cc2)cc1
34 | – | 0.38 µM | > 100 µM | 0.086 µM | > 100 µM | – | – | C[C@@H](c1ccc(-c2ccccc2Cl)cc1)[C@H](N)C(=O)N1CC[C@H](F)C1
35 | – | 4.6 µM | > 100 µM | 0.24 µM | > 100 µM | – | – | C[C@@H](c1ccc(-c2ccccn2)cc1)[C@H](N)C(=O)N1CC[C@H](F)C1
36 | – | 8.6 µM | > 100 µM | 0.37 µM | > 100 µM | – | – | C[C@@H](c1ccc(-c2ccc(C(=O)O)cc2)cc1)[C@H](N)C(=O)N1CC[C@H](F)C1
37 | – | 3 µM | > 100 µM | 0.12 µM | – | – | – | C[C@@H](c1ccc(-c2ccccc2)cc1)[C@H](N)C(=O)N1CC[C@H](F)C1
38 | – | 1.3 µM | – | 0.027 µM | > 100 µM | – | – | C[C@@H](c1ccc(-c2cccc(NS(=O)(=O)C(F)(F)F)c2)cc1)[C@H](N)C(=O)N1CC[C@H](F)C1
39 | – | 0.82 µM | – | – | – | – | – | C[C@@H](c1ccc(-c2cccc(C(N)=O)c2)cc1)[C@H](N)C(=O)N1CC[C@H](F)C1
40 | – | 0.49 µM | > 100 µM | 0.075 µM | > 100 µM | – | – | CCOC(=O)c1cccc(-c2ccc([C@H](C)[C@H](N)C(=O)N3CC[C@H](F)C3)cc2)c1
41 | – | 10 µM | > 100 µM | 0.58 µM | – | – | – | C[C@@H](c1ccc(-c2cncnc2)cc1)[C@H](N)C(=O)N1CC[C@H](F)C1
42 | – | 0.67 µM | > 100 µM | 0.51 µM | – | – | – | C[C@@H](c1ccc(-c2ccc(C(F)(F)F)cc2)cc1)[C@H](N)C(=O)N1CC[C@H](F)C1
43 | – | 1.8 µM | > 100 µM | 0.71 µM | > 100 µM | – | – | C[C@@H](c1ccc(-c2ccc(NS(C)(=O)=O)cc2)cc1)[C@H](N)C(=O)N1CC[C@H](F)C1
44 | – | 1.2 µM | > 100 µM | 0.42 µM | > 100 µM | – | – | C[C@@H](c1ccc(-c2ccc(S(C)(=O)=O)cc2)cc1)[C@H](N)C(=O)N1CC[C@H](F)C1
45 | – | 2 µM | – | 0.06 µM | – | – | – | C[C@@H](c1ccc(-c2ccc(F)c(F)c2)cc1)[C@H](N)C(=O)N1CC[C@H](F)C1
46 | – | 4.8 µM | > 100 µM | 0.11 µM | > 100 µM | – | – | C[C@@H](c1ccc(-c2cccnc2)cc1)[C@H](N)C(=O)N1CC[C@H](F)C1
47 | – | 0.33 µM | > 100 µM | 0.13 µM | – | – | – | COc1ccc(-c2ccc([C@H](C)[C@H](N)C(=O)N3CC[C@H](F)C3)cc2)cc1
48 | – | 0.25 µM | > 100 µM | 0.15 µM | > 100 µM | – | – | C[C@@H](c1ccc(-c2cccc(NS(C)(=O)=O)c2)cc1)[C@H](N)C(=O)N1CC[C@H](F)C1
49 | – | 0.12 µM | > 100 µM | 0.44 µM | > 100 µM | – | – | CCOC(=O)c1ccc(-c2ccc([C@H](C)[C@H](N)C(=O)N3CC[C@H](F)C3)cc2)cc1
50 | – | 2.5 µM | > 100 µM | 0.037 µM | > 100 µM | – | – | C[C@@H](c1ccc(-c2ccc(F)cc2F)cc1)[C@H](N)C(=O)N1CC[C@H](F)C1
51 | – | 2.9 µM | – | 0.11 µM | – | – | – | C[C@@H](c1ccc(-c2cccc(S(C)(=O)=O)c2)cc1)[C@H](N)C(=O)N1CC[C@H](F)C1
52 | – | 3.8 µM | > 100 µM | 0.11 µM | > 100 µM | – | – | COc1ccccc1-c1ccc([C@H](C)[C@H](N)C(=O)N2CC[C@H](F)C2)cc1
53 | – | 3.6 µM | > 100 µM | 0.14 µM | > 100 µM | – | – | C[C@@H](c1ccc(-c2cccc(S(N)(=O)=O)c2)cc1)[C@H](N)C(=O)N1CC[C@H](F)C1
54 | – | 36 µM | > 100 µM | 3.6 µM | > 100 µM | – | – | C[C@@H](c1ccc(S(C)(=O)=O)cc1)[C@H](N)C(=O)N1CC[C@H](F)C1
55 | – | 1.1 µM | > 100 µM | 0.1 µM | > 100 µM | – | – | C[C@@H](c1ccc(-c2ccccc2F)cc1)[C@H](N)C(=O)N1CC[C@H](F)C1
56 | – | 3.1 µM | > 100 µM | 0.11 µM | > 100 µM | – | – | C[C@@H](c1ccc(-c2ccncc2)cc1)[C@H](N)C(=O)N1CC[C@H](F)C1
57 | – | 2.5 µM | > 100 µM | – | > 100 µM | – | – | Cc1ccccc1-c1ccc([C@H](C)[C@H](N)C(=O)N2CC[C@H](F)C2)cc1

Source: ChEMBL document CHEMBL1139555, “Discovery of potent and selective phenylalanine based dipeptidyl peptidase IV inhibitors” (Bioorg Med Chem Lett, 2005)
